Patent US20200062696A1, “COMPOSITIONS AND METHODS FOR INHIBITING RETICULON 4” (THE REGENTS OF THE UNIVERSITY OF CALIFORNIA, priority 2017, published 2020)

Columns and labels:
[1] = system: SW620 tumor xenograft; test: SW620 tumor xenograft growth in immune-deficient SCID mice; format: in vivo; settings: 50 mg/kg ip once per day, started ten days after subcutaneous injection of SW620 cells
Experimental: Tumor Xenograft Growth Studies. C.B17 SCID male mice (6-8 weeks old) were injected subcutaneously into the flank with 2,000,000 cells in serum-free media. For pharmacological treatments, mice were exposed by intraperitoneal (ip) injection with either vehicle (18:1:1 PBS/ethanol/PEG40) or 50 mg/kg DKM 3-30 once per day starting ten days after the initiation of the xenograft experiment and until the completion of the study. Tumors were measured every 7 days by caliper measurements. Animal experiments were conducted in accordance with the guidelines of the Institutional Animal Care and Use Committee of the University of California, Berkeley.

[2] = biological target: T1, pure human RTN4 protein (Homo sapiens, UniProt Q9NQC3); test: Gel-based ABPP competition against IAyne labeling of pure human RTN4 protein; format: binding; settings: pure human RTN4 protein, gel-based ABPP
T1 construct: purchased Fisher Scientific
T1 sequence (Q9NQC3 1-1192): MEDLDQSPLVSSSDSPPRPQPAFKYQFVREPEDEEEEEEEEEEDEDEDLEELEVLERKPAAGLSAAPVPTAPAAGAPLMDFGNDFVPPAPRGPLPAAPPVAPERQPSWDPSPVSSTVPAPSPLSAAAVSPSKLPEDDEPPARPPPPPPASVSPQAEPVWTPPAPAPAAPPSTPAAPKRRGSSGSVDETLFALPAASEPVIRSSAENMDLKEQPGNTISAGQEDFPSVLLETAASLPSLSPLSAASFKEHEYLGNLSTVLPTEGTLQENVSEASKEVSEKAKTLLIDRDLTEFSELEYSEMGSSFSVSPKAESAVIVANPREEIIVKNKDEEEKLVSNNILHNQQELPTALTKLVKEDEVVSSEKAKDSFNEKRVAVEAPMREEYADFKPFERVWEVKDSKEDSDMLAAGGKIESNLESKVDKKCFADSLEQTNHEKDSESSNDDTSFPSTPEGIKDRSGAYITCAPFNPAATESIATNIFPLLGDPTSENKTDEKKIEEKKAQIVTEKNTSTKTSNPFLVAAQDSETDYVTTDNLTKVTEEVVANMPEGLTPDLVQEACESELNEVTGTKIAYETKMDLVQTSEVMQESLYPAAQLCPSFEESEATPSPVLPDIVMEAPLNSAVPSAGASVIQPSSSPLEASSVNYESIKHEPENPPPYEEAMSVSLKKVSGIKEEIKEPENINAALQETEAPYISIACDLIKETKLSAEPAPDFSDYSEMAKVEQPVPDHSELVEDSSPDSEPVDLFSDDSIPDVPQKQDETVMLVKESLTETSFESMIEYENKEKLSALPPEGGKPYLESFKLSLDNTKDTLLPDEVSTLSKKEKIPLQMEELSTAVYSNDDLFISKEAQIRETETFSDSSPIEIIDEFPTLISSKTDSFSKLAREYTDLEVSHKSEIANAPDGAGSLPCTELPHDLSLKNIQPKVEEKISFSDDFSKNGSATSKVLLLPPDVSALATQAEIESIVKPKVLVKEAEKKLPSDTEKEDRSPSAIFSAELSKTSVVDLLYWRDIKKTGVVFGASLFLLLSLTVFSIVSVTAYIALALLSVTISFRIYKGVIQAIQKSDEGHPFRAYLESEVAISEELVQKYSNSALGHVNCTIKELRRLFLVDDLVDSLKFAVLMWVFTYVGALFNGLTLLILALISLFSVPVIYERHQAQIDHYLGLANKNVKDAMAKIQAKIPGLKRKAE
Experimental: FIGS. 11A-11C. DKM 3-30 and analogs. (FIG. 11A) Structures of DKM 3-30 and analogs. (FIG. 11B) Gel-based ABPP analysis showing competition side-by-side competition studies of DKM 3-30, YP 1-46, and AMR 1-125 against IA-rhodamine labelling of pure human RTN4. Shown are the 50% inhibitory concentration (IC50) values for each compound. (FIG. 11C) Serum-free cell survival of U2OS (48 h) or SW620 (24 h) cells treated with DMSO vehicle or each compound (50 μM). Data in (C) are presented as mean±sem. Significance is expressed as *p<0.001 compared to vehicle-treated controls.
Gel-Based ABPP. Gel-based ABPP methods were performed as previously described^24. Recombinant RTN4 (0.06 μg) protein (RTN4-Fisher Scientific) were pre-treated with DMSO or DKM 3-30, respectively, for 1 h at 37° C. in an incubation volume of 50 μL PBS, and were subsequently treated with IAyne (10 μM final concentration) for 30 min at 37° C. CuAAC was performed to append rhodamine-azide onto IAyne probe-labeled proteins. The samples were separated by SDS/PAGE and scanned using a ChemiDoc MP (Bio-Rad Laboratories, Inc). Inhibition of target labeling was assessed by densitometry using ImageStudio Light software.

[3] = system: MEF cells expressing human RTN4-GFP; test: Apoptosis (propidium iodine and Annexin-V, flow cytometry) in MEF cells expressing human RTN4-GFP; format: cell-based, mouse; settings: DKM 3-30 50 μM, 0, 8 or 16 h
Experimental: FIG. 12. Effect of DKM 3-30 in Mouse Embryonic Fibroblast (MEF) cells expressing human RTN4. C1101 in human RTN4 is instead a serine in mouse RTN4. […] GFP or RTN4-GFP expressing MEF cells were treated with DKM 3-30 (50 μM) for 0, 8, or 16 h and apoptotic cells (propidium iodine positive and Annexin-V positive) were assessed by flow cytometry. Data are presented as mean±sem. Significance is expressed as *p<0.05 compared to 0 h time-point.

C=CC(=O)Nc1ccc(Oc2ccc(Cl)cc2)cc1 [DKM 3-30, N-(4-(4-chlorophenoxy)phenyl)acrylamide]
tumor xenograft growth [1]: initial regression and a sustained impairment in tumor growth
displacement of IAyne labelling of RTN4 [2]: validated this hit
apoptosis in MEF cells expressing human RTN4-GFP [3]: induces apoptosis
